Test results from patent publication US12686680B2, “Substituted pyrazolo[1,5-α]pyrimidines as CRF receptor antagonists” (Neurocrine Biosciences, Inc., priority 2019, dated 2026).

Key:
CRF1 receptor = molecular target: T1, CRF1 receptor (Homo sapiens, UniProt P34998); assay: CRF1 receptor binding kinetics (association/dissociation rate constants, method of Fleck et al.); details: for Ki: Ki=k−1/k1, read-out: Kinetic Ki; for k1: association rate constant; for k^−1: dissociation rate constant
T1 sequence (P34998 24-415): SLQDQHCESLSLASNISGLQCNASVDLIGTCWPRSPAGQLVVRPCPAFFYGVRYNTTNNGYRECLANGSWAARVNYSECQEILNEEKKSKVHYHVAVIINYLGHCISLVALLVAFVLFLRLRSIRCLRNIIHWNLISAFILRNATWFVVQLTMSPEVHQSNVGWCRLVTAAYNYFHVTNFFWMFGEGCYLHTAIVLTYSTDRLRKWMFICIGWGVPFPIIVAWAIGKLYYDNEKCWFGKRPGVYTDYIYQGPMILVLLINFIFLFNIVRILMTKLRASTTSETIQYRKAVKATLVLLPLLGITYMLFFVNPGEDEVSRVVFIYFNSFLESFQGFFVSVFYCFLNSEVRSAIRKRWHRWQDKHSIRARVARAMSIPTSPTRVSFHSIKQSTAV
Protocol: The association (k1) and dissociation (k−1) rate constants defining binding of the Compounds to the CRF1 receptor were determined by the method described in Fleck et al. (J. Pharmacology and Experimental Therapeutics, 341(2):518-531, 2012) (hereinafter “Fleck et al.” and incorporated by reference in its entirety). As described therein, the activity of a CRF1 receptor antagonist can be expressed as the kinetically derived affinity (Ki) calculated from the association (k1) and dissociation (k−1) rate constants by the following equation: Ki=k−1/k1
The Compounds listed in Table 5 were evaluated according to these procedures, and the kinetic Ki was determined and found to be as follows: […]

ADX rats = assay: Lowering of ACTH in adrenalectomized rats; format: in vivo; details: oral, 10 mg/kg single dose, n=11/group
[1] = pKa determination, SiriusT3 UV-metric and pH-metric co-solvent titration; format: physicochemical; details: water:CH3OH co-solvent mixtures
Protocol: The pKa was determined using a SiriusT3 (Serial: T317136) with a UV-metric co-solvent titration assay and a pH-metric co-solvent titration assay. For the UV-metric, 10 mM sample was prepared in DMSO with phosphate buffer and placed on the instrument along with a blank prepared with the same composition, absent compound. For pH-metric, an appropriate weight of sample was added to a glass vial to meet buffer capacity requirements, absent of diluent. For each test, pKa was measured in three water:CH3OH ratios. The reported pKas are extrapolated graphically via the Yasuda-Shedlovsky method.

| Ki (CRF1 receptor) [pM] | k1 (CRF1 receptor) | k^−1 (CRF1 receptor) [min⁻¹] | pKa ([1]; UV-metric method, Yasuda-Shedlovsky extrapolation from water:CH3OH) | pKa ([1]; overall, two methods) | pKa ([1]; pH-metric method, Yasuda-Shedlovsky extrapolation from water:CH3OH) | SMILES | duration of lowering of plasma ACTH levels (ADX rats) | plasma ACTH levels (ADX rats) |
| --- | --- | --- | --- | --- | --- | --- | --- | --- |
| < 120 | 9.1 ± 4.1 10^6M^−1min^−1 | <0.001 |  |  |  | CCCN(Cc1ccc(-c2ccccc2)cc1)c1cc(C)nc2c(-c3cnc(N(C)C)cc3C)c(C)nn12 [Compound 8, 5-(2,5-dimethyl-7-{[(4-phenylphenyl)methyl](propyl)amino}pyrazolo[1,5-a]pyrimidin-3-yl)-N,N,4-trimethylpyridin-2-amine] |  |  |
| < 220 | 4.9 ± 1.7 10^6M^−1min^−1 | <0.001 | 4.07 ± 0.06 | ~4.1 | 4.06 ± 0.08 | CCCN(Cc1ccc(-c2csc(N(C)C)n2)cc1)c1cc(C)nc2c(-c3cnc(N(C)C)cc3C)c(C)nn12 [Compound 1, 5-{7-[({4-[2-(dimethylamino)-1,3-thiazol-4-yl]phenyl}methyl)(propyl)amino]-2,5-dimethylpyrazolo[1,5-a]pyrimidin-3-yl}-N,N,4-trimethylpyridin-2-amine] | up to 5 hours | significantly lowered |
| 720 | 2.4 +/− 0.2 10^6M^−1min^−1 | 0.0017 |  |  |  | CCCN(Cc1ccc(-c2csc(NC)n2)cc1)c1cc(C)nc2c(-c3cnc(N(C)C)cc3C)c(C)nn12 [Compound 11, 5-{2,5-dimethyl-7-[({4-[2-(methylamino)-1,3-thiazol-4-yl]phenyl}methyl)(propyl)amino]pyrazolo[1,5-a]pyrimidin-3-yl}-N,N,4-trimethylpyridin-2-amine] |  |  |
| < 190 | 5.3 ± 0.78 10^6M^−1min^−1 | <0.001 |  |  |  | CCCN(Cc1ccc(-c2cccnc2)cc1)c1cc(C)nc2c(-c3cnc(N(C)C)cc3C)c(C)nn12 [Compound 2, 5-{2,5-dimethyl-7-[propyl({[4-(pyridin-3-yl)phenyl]methyl})amino]pyrazolo[1,5-a]pyrimidin-3-yl}-N,N,4-trimethylpyridin-2-amine] |  |  |
